Calls of active or inactive are those of the source.
How the values were obtained:
[1] = system: BJ; experiment: cytotoxicity toward BJ-TERT-LT-ST fibroblasts, dose response, cell-based, RAS-independent, luminescence (AID 1935); type: functional; conditions: Homo sapiens;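 further: BJ fibroblasts immortalized with TERT plus LT and ST oncogenes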
[2] = biological target: Keap1/Nrf2 (Homo sapiens, UniProt Q14145); experiment: Keap1-Nrf2 protein-protein interaction inhibitors, dose response, biochemical, fluorescence polarization, cherry-picked samples (AID 588683)
[3] = biological target: T1, RNA-binding protein pos-1 (Caenorhabditis elegans, UniProt G5EF15); experiment: inhibitors of POS-1/mex-3 RNA binding, dose response, biochemical, fluorescence polarization (AID 1964);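 further: purified POS-1 fused to maltose binding protein made in E. coli; potency of compounds blocking POS-1 binding to fluorescent RNA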
T1 sequence (G5EF15 whole entry): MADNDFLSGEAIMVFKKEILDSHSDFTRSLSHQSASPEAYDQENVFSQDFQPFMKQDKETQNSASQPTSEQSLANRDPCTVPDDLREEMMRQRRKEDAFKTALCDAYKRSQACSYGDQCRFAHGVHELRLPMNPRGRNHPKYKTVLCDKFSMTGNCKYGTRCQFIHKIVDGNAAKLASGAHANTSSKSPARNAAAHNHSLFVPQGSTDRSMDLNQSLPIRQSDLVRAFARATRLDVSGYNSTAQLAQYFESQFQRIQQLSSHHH

[4] = biological target: Troponin, cardiac muscle (Homo sapiens, UniProt P19429+P45379+P63316); experiment: Fluorescence-based biochemical high throughput dose response assay for activators of the calcium sensitivity of cardiac Regulated Thin Filaments (RTF). [Related pubchem assays (depositor defined):AID493008, AID493018, AID504382, AID504383]; type: protein-complex assay
[5] = biological target: Probable nicotinate-nucleotide adenylyltransferase (Staphylococcus aureus (strain N315), UniProt P65502); type: functional, Staphylococcus aureus subsp. aureus N315;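 further: confirmatory retest of primary uHTS inhibitor hits against NadD over a range of doses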
[6] = biological target: T2, Tyrosine-protein phosphatase non-receptor type 22 (Homo sapiens, UniProt Q9Y2R2); type: functional
T2 sequence (Q9Y2R2 whole entry): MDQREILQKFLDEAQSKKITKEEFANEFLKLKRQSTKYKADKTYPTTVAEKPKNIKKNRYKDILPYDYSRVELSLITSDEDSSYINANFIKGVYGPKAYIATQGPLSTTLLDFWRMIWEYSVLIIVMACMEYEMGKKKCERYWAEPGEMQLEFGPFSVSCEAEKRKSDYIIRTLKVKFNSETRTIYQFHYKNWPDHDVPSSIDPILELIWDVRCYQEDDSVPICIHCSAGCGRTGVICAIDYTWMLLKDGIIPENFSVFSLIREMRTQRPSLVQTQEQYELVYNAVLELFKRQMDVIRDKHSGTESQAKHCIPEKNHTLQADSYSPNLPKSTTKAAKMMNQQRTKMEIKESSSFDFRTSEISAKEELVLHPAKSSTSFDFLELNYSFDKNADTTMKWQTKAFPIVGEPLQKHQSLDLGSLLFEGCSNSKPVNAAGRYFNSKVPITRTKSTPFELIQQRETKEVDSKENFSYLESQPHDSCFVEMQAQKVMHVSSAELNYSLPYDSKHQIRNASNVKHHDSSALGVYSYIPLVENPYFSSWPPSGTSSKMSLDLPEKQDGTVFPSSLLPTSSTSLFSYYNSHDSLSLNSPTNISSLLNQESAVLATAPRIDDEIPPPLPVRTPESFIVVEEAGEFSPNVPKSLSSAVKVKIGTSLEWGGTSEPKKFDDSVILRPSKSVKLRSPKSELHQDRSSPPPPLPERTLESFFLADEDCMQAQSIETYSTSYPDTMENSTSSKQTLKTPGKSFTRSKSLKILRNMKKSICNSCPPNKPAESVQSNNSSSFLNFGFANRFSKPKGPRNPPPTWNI

[7] = biological target: T3, Mannose-6-phosphate isomerase (Homo sapiens, UniProt P34949); experiment: human PMI inhibitors, high substrate, primary screen, biochemical, fluorescence intensity, high mannose 6-phosphate (AID 1220)
T3 sequence (P34949 whole entry): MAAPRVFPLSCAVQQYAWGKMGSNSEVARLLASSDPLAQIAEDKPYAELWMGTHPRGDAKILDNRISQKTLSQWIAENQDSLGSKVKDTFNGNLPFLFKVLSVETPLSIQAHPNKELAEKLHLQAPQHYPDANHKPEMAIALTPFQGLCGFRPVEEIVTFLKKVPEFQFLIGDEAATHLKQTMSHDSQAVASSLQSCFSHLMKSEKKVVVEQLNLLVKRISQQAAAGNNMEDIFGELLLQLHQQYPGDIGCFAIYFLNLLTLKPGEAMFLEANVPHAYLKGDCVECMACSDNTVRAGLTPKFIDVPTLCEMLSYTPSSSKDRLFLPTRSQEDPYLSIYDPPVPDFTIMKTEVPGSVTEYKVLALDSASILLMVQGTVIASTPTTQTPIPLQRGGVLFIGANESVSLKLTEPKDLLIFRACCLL

[8] = biological target: T2, Tyrosine-protein phosphatase non-receptor type 22; experiment: inhibitors of LYP phosphatase, biochemical, fluorescence intensity, uHTS (AID 1779)
[9] = biological target: T2, Tyrosine-protein phosphatase non-receptor type 22; experiment: SAR LYP1 Fluorescent Assay using OMFP substrate for In Vitro dose response studies - Set 2. [Related pubchem assays (depositor defined):AID1779, AID1784, AID2140, AID449726, AID488869]; type: functional
[10] = biological target: T4, High affinity choline transporter 1 (Homo sapiens, UniProt Q9GZV3); experiment: CHT inhibitors, dose response, cell-based, 5-point CRC, membrane potential dye (AID 504840); type: functional
T4 sequence (Q9GZV3 whole entry): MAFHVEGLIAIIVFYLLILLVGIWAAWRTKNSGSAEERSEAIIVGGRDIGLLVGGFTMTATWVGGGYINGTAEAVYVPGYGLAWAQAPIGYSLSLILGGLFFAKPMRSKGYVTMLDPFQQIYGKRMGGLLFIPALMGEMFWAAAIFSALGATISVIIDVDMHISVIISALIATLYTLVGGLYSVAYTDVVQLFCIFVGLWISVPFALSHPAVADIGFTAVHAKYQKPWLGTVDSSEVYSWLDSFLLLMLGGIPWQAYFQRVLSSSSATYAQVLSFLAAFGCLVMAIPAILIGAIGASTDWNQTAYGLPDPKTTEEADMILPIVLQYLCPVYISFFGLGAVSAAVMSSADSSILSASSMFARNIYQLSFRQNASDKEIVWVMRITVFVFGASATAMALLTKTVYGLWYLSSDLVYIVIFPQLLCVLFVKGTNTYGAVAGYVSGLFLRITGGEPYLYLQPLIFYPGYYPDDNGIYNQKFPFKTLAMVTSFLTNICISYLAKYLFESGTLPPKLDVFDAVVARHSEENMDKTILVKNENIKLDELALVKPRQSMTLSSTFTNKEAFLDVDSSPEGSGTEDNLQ

Chain of Keap1/Nrf2 (Q16236 whole entry, the tested form may be a part): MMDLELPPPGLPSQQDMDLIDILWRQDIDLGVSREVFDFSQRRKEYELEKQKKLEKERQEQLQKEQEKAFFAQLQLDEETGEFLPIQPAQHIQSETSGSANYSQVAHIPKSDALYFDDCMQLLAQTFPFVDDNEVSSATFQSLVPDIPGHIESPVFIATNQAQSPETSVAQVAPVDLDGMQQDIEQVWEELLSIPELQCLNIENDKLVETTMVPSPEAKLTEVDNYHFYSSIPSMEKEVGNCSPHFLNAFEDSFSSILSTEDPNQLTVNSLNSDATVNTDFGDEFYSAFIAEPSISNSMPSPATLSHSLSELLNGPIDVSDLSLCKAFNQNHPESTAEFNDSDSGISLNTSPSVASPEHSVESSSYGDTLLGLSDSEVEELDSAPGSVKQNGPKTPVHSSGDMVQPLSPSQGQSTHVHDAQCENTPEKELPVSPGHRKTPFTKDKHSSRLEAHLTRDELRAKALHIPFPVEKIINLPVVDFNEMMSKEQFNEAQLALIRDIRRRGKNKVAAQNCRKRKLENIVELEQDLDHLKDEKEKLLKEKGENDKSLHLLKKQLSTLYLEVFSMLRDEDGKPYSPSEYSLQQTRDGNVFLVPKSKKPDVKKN
Chain of Keap1/Nrf2 (Q14145 whole entry, the tested form may be a part): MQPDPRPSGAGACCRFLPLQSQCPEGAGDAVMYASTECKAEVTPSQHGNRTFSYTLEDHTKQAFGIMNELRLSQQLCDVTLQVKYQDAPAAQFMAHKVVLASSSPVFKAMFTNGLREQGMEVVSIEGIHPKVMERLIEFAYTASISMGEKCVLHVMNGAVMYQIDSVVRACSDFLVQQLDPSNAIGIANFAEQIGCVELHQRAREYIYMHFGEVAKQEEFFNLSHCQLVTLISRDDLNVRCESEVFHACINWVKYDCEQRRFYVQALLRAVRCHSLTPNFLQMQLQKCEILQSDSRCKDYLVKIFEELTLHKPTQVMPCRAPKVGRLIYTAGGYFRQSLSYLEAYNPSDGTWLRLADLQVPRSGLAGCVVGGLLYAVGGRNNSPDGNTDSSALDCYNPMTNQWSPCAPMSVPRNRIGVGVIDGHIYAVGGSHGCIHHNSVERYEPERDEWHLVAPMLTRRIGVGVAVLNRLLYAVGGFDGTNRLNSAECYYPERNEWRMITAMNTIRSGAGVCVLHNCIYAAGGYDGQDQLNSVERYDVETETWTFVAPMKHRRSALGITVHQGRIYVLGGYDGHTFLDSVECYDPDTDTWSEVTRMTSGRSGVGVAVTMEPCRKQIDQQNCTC
Chain of Probable nicotinate-nucleotide adenylyltransferase (P65502 whole entry): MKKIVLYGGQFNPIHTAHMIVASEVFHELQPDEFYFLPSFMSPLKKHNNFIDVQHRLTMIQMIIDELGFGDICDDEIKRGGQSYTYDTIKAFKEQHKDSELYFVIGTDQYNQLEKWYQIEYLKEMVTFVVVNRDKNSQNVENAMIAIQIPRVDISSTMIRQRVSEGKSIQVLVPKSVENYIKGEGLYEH

## CCN1/C(=C/c2ccc3cc(C)ccc3[n+]2CC)Sc2cc(C)c(C)cc21
[1]
  EC50: 13.7 µM (inconclusive)

## Nc1ccc2nc3c(O)nc(S)nc3nc2c1
[2]
  AC50: 3.55 µM (active)
[3]
  EC50: 7.85 µM (inconclusive)
[4]
  EC50: 1.14 µM (active)
[5]
  IC50: 7.46 µM (active)
[6]
  IC50: > 79.4 µM (inactive)

## Cc1oc2c(c1C(=O)c1ccccc1)C(=O)C(=O)c1ccccc1-2
[7]
  IC50: > 50 µM (not active)

## O=C(O)COc1ccc(/C=N/NC(=O)c2ccc(-c3csc(Nc4ccc(Cl)cc4)n3)cc2)cc1
[8]
  IC50: > 99 µM (inactive)
[9]
  IC50: 1.24 µM (active)
[6]
  IC50: < 1.24 µM (active)

## CC(/C=C1\SC(=S)N(NS(=O)(=O)c2ccccc2)C1=O)=C\c1ccccc1
[10]
  IC50: 9.12 µM (active)
